The source of these data is article PMC4440778, “Structure-Activity Relationship and Mode of Action of a Frog Secreted Antibacterial Peptide B1CTcu5 Using Synthetically and Modularly Modified or Deleted (SMMD) Peptides” (PLoS ONE, 2015).

The test system of data set [1] is B. subtilis MTCC 14416. Conditions: MTCC 14416, 24 h.
Protocol: (§2) Bacterial cultures were grown in Luria Bertani broth (Hi-media) by overnight incubation at 37°C with constant shaking. Microbial cultures having 10^6 CFU/ml were made from OD 0.6 culture. Respective peptide stock concentration (1mg/ml) were prepared in sterile water and diluted in LB broth to make concentrations ranging from 1–200 μg/ml. Bacterial culture (50 μl) was treated with 50 μl of individual peptide amide solution of various concentrations and incubated for 24 h at 37°C with constant shaking in a 96 well microtitre plate. […] The minimum inhibitory concentration (MIC) was taken as the dose at which 100% of growth inhibition was observed and was calculated from the graph. MIC was calculated from independent experiments performed in triplicate.
Data set [2] deals with E. coli MG 1655. To be noted: MG 1655, 24 h.
Protocol: as §2
Data set [3] concerns S. aureus ATCC 9542. Conditions: ATCC 9542, 24 h.
Protocol: as §2
The test system of data set [4] is V. cholerae (clinical isolates). Conditions: 24 h.
Protocol: as §2
Data set [5] has as its system skin cancer cells (A431). The format is cell-based, human. As to the method:
(§1) Cytotoxicity of the peptides against human embryonic kidney (HEK) cells, skin cancer cells (A431) and PBMCs were evaluated by 3-[4, 5-dimethylthiazol-2-yl]-2, 5-diphenyl tetrazolium bromide (MTT) assay. Peptide solution prepared in less than 0.2% DMSO (10–100 μg/ml) was treated with initially seeded 10,000 cells per well for HEK and A431 cells. To assess peptide cytotoxicity in PBMCs, MTT assay was performed by adding different concentrations of the respective peptides to 96 well plate containing 40,000 PBMCs per well, in triplicate. The conversion of MTT into […] was determined by measuring the absorbance at 570 nm.

Data set [6] concerns human embryonic kidney (HEK) cells. The format is cell-based. The method, then: as §1
Data set [7] deals with B. coagulans ATCC 7050. To be noted: ATCC 7050, 24 h.
Protocol: as §2
Data set [8] relates to P. aeruginosa ATCC 27853. Conditions: ATCC 27853, 24 h.
Protocol: as §2
For data set [9], the system named is PBMCs. The format is cell-based, human. The method, then:
Peripheral blood mononuclear cells (PBMCs) were isolated from heparanised blood of healthy individuals. Five milliliter of blood was diluted with PBS (pH 7.4), and layered above 5 ml of histopaque and centrifuged at 1200 rpm for 30 min at room temperature. The upper layer was discarded, and the interphase containing PBMCs were carefully withdrawn and washed with PBS. It was centrifuged at 1500 rpm at room temperature for 10 min, the pellets were resuspended in RPMI medium and the cells were counted.
as §1

Values after ≈ are worked out from the molar mass of the structure shown. Where a SMILES comes first, the peptide text is derived from it. Bridges are numbered along the chain shown (N, C = ends). Where no end group is shown, it is not given here. [ ]: non-standard residue; d: D form. The star is where a group is joined. Acm = CC(=O)NC* Bounds are passed on as bounds.

As to `CC[C@H](C)[C@@H]1NC(=O)[C@H](CCCCN)NC(=O)[C@@H](NC(=O)[C@H](CC(C)C)NC(=O)[C@@H](NC(=O)[C@H](CCC(N)=O)NC(=O)[C@@H]2CCCN2C(=O)[C@H](CC(C)C)NC(=O)[C@H](Cc2ccccc2)NC(=O)[C@H](CC(N)=O)NC(=O)[C@H](C)NC(=O)[C@H](C)NC(=O)[C@@H](N)CC(C)C)[C@@H](C)CC)CSSC[C@@H](C(N)=O)NC(=O)[C@H](CCCCN)NC(=O)[C@H](CCCNC(=N)N)NC(=O)[C@H](C)NC1=O` [B1CTcu5-LIAG] (H-LAANFLPQILCKIARKC-NH2; disulfide 11-17), the MIC is 50 µg/mL (≈ 26.3 µM) in [1]; 12.5 µg/mL (≈ 6.58 µM) in data set [2]; 6.25 µg/mL (≈ 3.29 µM) in data set [3]; 12.5 µg/mL (≈ 6.58 µM) in data set [4]; 25 µg/mL (≈ 13.2 µM) in [7]; greater than 100 µg/mL in data set [8]. The “CC 50” value in data set [5], in data set [6] and in data set [9] was greater than 100 µg/mL each time.

Take `CC[C@H](C)[C@@H]1NC(=O)[C@H](CCCCN)NC(=O)[C@@H](NC(=O)[C@H](CC(C)C)NC(=O)[C@@H](NC(=O)[C@H](CCC(N)=O)NC(=O)[C@@H]2CCCN2C(=O)[C@H](CC(C)C)NC(=O)[C@H](Cc2ccccc2)NC(=O)[C@H](CC(N)=O)NC(=O)[C@H](C)NC(=O)[C@H](C)NC(=O)[C@H](CC(C)C)NC(=O)CN)[C@@H](C)CC)CSSC[C@@H](C(N)=O)NC(=O)[C@H](CCCCN)NC(=O)[C@H](CCCNC(=N)N)NC(=O)[C@H](C)NC1=O` [B1CTcu5-LIA] (H-GLAANFLPQILCKIARKC-NH2; disulfide 12-18): the MIC was 100 µg/mL (≈ 51.1 µM) in [1]; 100 µg/mL (≈ 51.1 µM) in data set [2]; 50 µg/mL (≈ 25.6 µM) in data set [3]; 50 µg/mL (≈ 25.6 µM) in [4]; 100 µg/mL (≈ 51.1 µM) in [7]; greater than 100 µg/mL in data set [8].

For `CC[C@H](C)[C@@H]1NC(=O)[C@H](CCCCN)NC(=O)[C@@H](NC(=O)[C@H](CC(C)C)NC(=O)[C@@H](NC(=O)[C@H](CCC(N)=O)NC(=O)[C@@H]2CCCN2C(=O)[C@H](CC(C)C)NC(=O)[C@H](Cc2ccccc2)NC(=O)[C@H](CC(N)=O)NC(=O)[C@H](C)NC(=O)[C@H](C)NC(=O)[C@H](CC(C)C)NC(=O)CNC(=O)[C@H](C)N)[C@@H](C)CC)CSSC[C@@H](C(N)=O)NC(=O)[C@H](CCCCN)NC(=O)[C@H](CCCNC(=N)N)NC(=O)[C@H](C)NC1=O` [B1CTcu5-LI] (H-AGLAANFLPQILCKIARKC-NH2; disulfide 13-19), the MIC in data set [2] is 50 µg/mL (≈ 24.7 µM); in [3] it was 50 µg/mL (≈ 24.7 µM); in [4], 25 µg/mL (≈ 12.3 µM); in data set [7], 80 µg/mL (≈ 39.5 µM); in data set [8] it was greater than 100 µg/mL.

As for `CC[C@H](C)[C@H](N)C(=O)N[C@@H](C)C(=O)NCC(=O)N[C@@H](CC(C)C)C(=O)N[C@@H](C)C(=O)N[C@@H](C)C(=O)N[C@@H](CC(N)=O)C(=O)N[C@@H](Cc1ccccc1)C(=O)N[C@@H](CC(C)C)C(=O)N1CCC[C@H]1C(=O)N[C@@H](CCC(N)=O)C(=O)N[C@H](C(=O)N[C@@H](CC(C)C)C(=O)N[C@H]1CSSC[C@@H](C(N)=O)NC(=O)[C@H](CCCCN)NC(=O)[C@H](CCCNC(=N)N)NC(=O)[C@H](C)NC(=O)[C@H]([C@@H](C)CC)NC(=O)[C@H](CCCCN)NC1=O)[C@@H](C)CC` [B1CTcu5-L] (H-IAGLAANFLPQILCKIARKC-NH2; disulfide 14-20), the minimal inhibitory concentration (MIC) in data set [1] was 100 µg/mL (≈ 46.7 µM); in data set [2], 50 µg/mL (≈ 23.4 µM); in [3], 25 µg/mL (≈ 11.7 µM); in data set [4], 25 µg/mL (≈ 11.7 µM); in data set [7] it was 100 µg/mL (≈ 46.7 µM); in data set [8] it was greater than 100 µg/mL.

With `CC[C@H](C)[C@H](NC(=O)[C@H](CCCCN)NC(=O)[C@H](CSCNC(C)=O)NC(=O)[C@H](CC(C)C)NC(=O)[C@@H](NC(=O)[C@H](CCC(N)=O)NC(=O)[C@@H]1CCCN1C(=O)[C@H](CC(C)C)NC(=O)[C@H](Cc1ccccc1)NC(=O)[C@H](CC(N)=O)NC(=O)[C@H](C)NC(=O)[C@H](C)NC(=O)[C@H](CC(C)C)NC(=O)CNC(=O)[C@H](C)NC(=O)[C@@H](NC(=O)[C@@H](N)CC(C)C)[C@@H](C)CC)[C@@H](C)CC)C(=O)N[C@@H](C)C(=O)N[C@@H](CCCNC(=N)N)C(=O)N[C@@H](CCCCN)C(=O)N[C@@H](CS)C(N)=O` [B1CTcu5C (Acm)] (H-LIAGLAANFLPQILC(Acm)KIARKC-NH2), the MIC in [1] is 50 µg/mL (≈ 21.5 µM); in data set [2] it was 12.5 µg/mL (≈ 5.37 µM); in data set [3] it was 50 µg/mL (≈ 21.5 µM); in [4] it was 50 µg/mL (≈ 21.5 µM); in data set [7] it was 25 µg/mL (≈ 10.7 µM); in [8], greater than 100 µg/mL.

Regarding `CC[C@H](C)[C@@H]1NC(=O)[C@H](CCCCN)NC(=O)[C@@H](NC(=O)[C@H](CC(C)C)NC(=O)[C@@H](NC(=O)[C@H](CCC(N)=O)NC(=O)[C@@H]2CCCN2C(=O)[C@H](CC(C)C)NC(=O)[C@H](Cc2ccccc2)NC(=O)[C@H](CC(N)=O)NC(=O)[C@H](C)NC(=O)[C@H](C)NC(=O)[C@H](CC(C)C)NC(=O)CNC(=O)[C@H](C)NC(=O)[C@@H](NC(=O)[C@@H](N)Cc2c[nH]cn2)[C@@H](C)CC)[C@@H](C)CC)CSSC[C@@H](C(N)=O)NC(=O)[C@H](CCCCN)NC(=O)[C@H](CCCNC(=N)N)NC(=O)[C@H](C)NC1=O` [B1CTcu5H] (H-HIAGLAANFLPQILCKIARKC-NH2; disulfide 15-21), the minimum inhibitory concentration (MIC) is 50 µg/mL (≈ 22 µM) in [1]; 50 µg/mL (≈ 22 µM) in data set [2]; greater than 100 µg/mL in data set [3]; 25 µg/mL (≈ 11 µM) in [4]; 25 µg/mL (≈ 11 µM) in data set [7]; greater than 100 µg/mL in [8]. In addition, the “CC 50” value in data set [5] is greater than 100 µg/mL; in data set [6] it was greater than 100 µg/mL; in [9], 90 ± 2.56 µg/mL (≈ 39.5 µM).

`CC[C@@H](C)[C@@H](NC(=O)[C@H](N)CC(C)C)C(=O)N[C@H](C)C(=O)NCC(=O)N[C@H](CC(C)C)C(=O)N[C@H](C)C(=O)N[C@H](C)C(=O)N[C@H](CC(N)=O)C(=O)N[C@H](Cc1ccccc1)C(=O)N[C@H](CC(C)C)C(=O)N1CCC[C@@H]1C(=O)N[C@H](CCC(N)=O)C(=O)N[C@@H](C(=O)N[C@H](CC(C)C)C(=O)N[C@@H]1CSSC[C@H](C(N)=O)NC(=O)[C@@H](CCCCN)NC(=O)[C@@H](CCCNC(=N)N)NC(=O)[C@@H](C)NC(=O)[C@@H]([C@H](C)CC)NC(=O)[C@@H](CCCCN)NC1=O)[C@H](C)CC` [DB1CTcu5] (H-[dL][dI][dA]G[dL][dA][dA][dN][dF][dL][dP][dQ][dI][dL][dC][dK][dI][dA][dR][dK][dC]-NH2; disulfide 15-21): the MIC in data set [1] is 50 µg/mL (≈ 22.2 µM); in data set [2], 25 µg/mL (≈ 11.1 µM); in data set [3], 50 µg/mL (≈ 22.2 µM); in [7], 15 µg/mL (≈ 6.66 µM); in data set [8] it was greater than 100 µg/mL. Also, the “CC 50” value in data set [5] was greater than 100 µg/mL; in data set [6] it was greater than 100 µg/mL; in [9] it was 71.4 ± 2.3 µg/mL (≈ 31.7 µM).

As for `CC[C@H](C)[C@H](NC(=O)[C@H](CCCCN)NC(=O)[C@H](CS)NC(=O)[C@H](CC(C)C)NC(=O)[C@@H](NC(=O)[C@H](CCC(N)=O)NC(=O)[C@@H]1CCCN1C(=O)[C@H](CC(C)C)NC(=O)[C@H](Cc1ccccc1)NC(=O)[C@H](CC(N)=O)NC(=O)[C@H](C)NC(=O)[C@H](C)NC(=O)[C@H](CC(C)C)NC(=O)CNC(=O)[C@H](C)NC(=O)[C@@H](NC(=O)[C@@H](N)CC(C)C)[C@@H](C)CC)[C@@H](C)CC)C(=O)N[C@@H](C)C(=O)N[C@@H](CCCNC(=N)N)C(=O)N[C@@H](CCCCN)C(=O)N[C@@H](CS)C(N)=O` [Linear B1CTcu5] (H-LIAGLAANFLPQILCKIARKC-NH2), the MIC in data set [1] was 50 µg/mL (≈ 22.2 µM); in data set [2], 25 µg/mL (≈ 11.1 µM); in data set [3], greater than 100 µg/mL; in data set [4] it was 25 µg/mL (≈ 11.1 µM); in data set [7] it was 12.5 µg/mL (≈ 5.54 µM); in data set [8] it was greater than 100 µg/mL.

For LIAGLAANFLPQILCKIARK-NH2 [B1CTcu5-C], the MIC was 50 µg/mL in data set [1]; 25 µg/mL in data set [2]; 50 µg/mL in [3]; 50 µg/mL in data set [4]; 25 µg/mL in data set [7]; greater than 100 µg/mL in data set [8].

Broadly, the MIC is the least concentration at which growth counts as inhibited.
